The values below come from patent US7745446B2, “Pyrazolo[1,5-c]pyrimidines” (Bayer Schering Pharma Aktiengesellschaft, priority 2004, dated 2010).

Test [1] addresses T1, full-length Akt1 (inactive) (Homo sapiens, UniProt P31749).
T1 construct: recombinant full-length human Akt1 a containing N-terminal His6 tag; His6 (N); purchased Upstate, UK #14-279; host or cells: baculovirus infected Sf21 insect cells
The experiment in a line: Biochemical Akt1 assay (full-length Akt1 inactive, PDK1-dependent activation, IMAP). The conditions noted are these: PDK1 and PIP3 vesicles, 50 μM ATP; read-out: Inhibition of Akt1 activation (full-length Akt1, inactive): IC50. As for the experimental part:
The enzyme is purified using Ni2+/NTA-agarose (Upstate, UK; #14-279).
The enzyme is purified using Ni2+/NTA-agarose.
PDK1-dependent activation and subsequent enzymatic activity of Akt1: Activity of purified human Akt1 is routinely measured in an assay in which the enzyme is first activated by PDK1 in the presence of phosphatidylinositol-3,4,5-triphosphate (PIP3). Once activated, Akt1-dependent phosphorylation of a fluorescence labelled peptide substrate is measured by fluorescence polarisation using the IMAP technology (Molecular Devices).
The phospholipids are prepared as follows: 5 mg DOPC/DOPS are solved in 200 μl 10 mM Tris (pH 7.4) and 300 μg PIP3 are resuspended in 950 μl 10 mM Tris (pH 7.4) by pipetting. 950 μl solved PIP3 are mixed with 50 μl solved DOPC/DOPS and incubated for 2 h at a temperature below 20° C. Then the mixture is subjected to sonification for 30 min. at max. power until a translucent phopholipid vesicle preparation is obtained. Aliquots of the vesicle suspension are frozen at -80° C. until needed, likewise the solved DOPC/DOPS.
Assays are performed in 384-well plates. Incubations are carried out for 60 min. at room temperature. The reaction buffer mixture contained in a final volume of 25 μl: 10 mM Tris pH 7,4, 10 mM MgCl2. 1 mM DTT, and 0.1 mg/ml BSA. In contrast the activation buffer contained: 50 ng/well Akt1, 20 ng/well PDK1, 1.25 μM peptide substrat, 50 μM ATP, and phospholipid vesicles (1:20). Test compounds are added from stock solutions in DMSO before activation of Akt1 by PDK1. After the incubation the beads (IMAP binding reagent; Molecular Devices; 1:167) are added and the fluorescence polarization is measured (excitation 485 nm, emission 530 nm).

Another test has as its target T2, PKA (Homo sapiens, UniProt P17612).
T2 construct: His; purchased PanVera, USA #R3791; host or cells: E. coli
The experiment in a line: Biochemical PKA assay (flashplate). The conditions noted are these: 100 nM ATP; read-out: PKA inhibition: −log IC50 (converted). In short, it runs like this: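 His-tagged human recombinant PKA catalytic subunit (E. coli), 1 ng/well, with 0.5 μM PKA peptide and 100 nM ATP including ^33P-ATP. Buffer […] pH7,5, 3 mM MgCl2, 3 mM MnCl2, Na-orthovanadate, 1 mM DTT; 80 min at 22° C. Stopped with H3PO4, scintillation flashplate counting, IC50 derived.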

Each structure is given as a SMILES string.

T1 sequence (P31749 whole entry): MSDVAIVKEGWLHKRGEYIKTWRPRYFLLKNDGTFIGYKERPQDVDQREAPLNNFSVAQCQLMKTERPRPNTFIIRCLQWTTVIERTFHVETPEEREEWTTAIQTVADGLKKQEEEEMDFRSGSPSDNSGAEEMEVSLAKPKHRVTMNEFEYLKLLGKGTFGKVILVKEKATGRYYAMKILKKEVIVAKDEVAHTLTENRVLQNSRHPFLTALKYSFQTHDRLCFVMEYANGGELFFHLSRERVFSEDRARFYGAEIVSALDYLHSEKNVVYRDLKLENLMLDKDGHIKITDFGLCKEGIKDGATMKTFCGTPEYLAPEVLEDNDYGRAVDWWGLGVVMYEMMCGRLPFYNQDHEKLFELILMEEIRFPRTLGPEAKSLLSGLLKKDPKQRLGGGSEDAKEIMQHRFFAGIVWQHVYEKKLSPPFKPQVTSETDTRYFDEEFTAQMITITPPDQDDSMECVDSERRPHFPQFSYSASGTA

With `NCCCC(=O)Nc1ccc(Nc2nc(-c3cccc4c3oc3ccccc34)cc3ccnn23)cc1` [Example 24, 4-Amino-N-[4-(5-dibenzofuran-4-yl-pyrazolo[1,5-c]pyrimidin-7-ylamino)-phenyl]-butyramide], the IC50 in test [1] was at most 5 µM.

Turning to `COc1cccc(-c2ccc(-c3cc4ccnn4c(Nc4ccc(NC(=O)c5ccc(CN)cc5)cc4)n3)cc2)c1` [Example 59, 4-Aminomethyl-N-{4-[5-(3′-methoxy-biphenyl-4-yl)-pyrazolo[1,5-c]pyrimidin-7-ylamino]-phenyl}-benzamide], the IC50 was at most 5 µM in test [1] and 6.31 to 100 µM on PKA.

Turning to `O=C(Nc1cccc(Nc2nc(-c3cccc4c3oc3ccccc34)cc3ccnn23)c1)c1ccc2c(c1)CCNC2` [Example 63, 1,2,3,4-Tetrahydro-isoquinoline-6-carboxylic acid [3-(5-dibenzofuran-4-yl-pyrazolo[1,5-c]pyrimidin-7-ylamino)-phenyl]-amide], the figures for the IC50 (in test [1]; on PKA) were at most 5 µM and 6.31 to 100 µM, respectively.

Turning to `COc1cccc(-c2ccc(-c3cc4c(Br)cnn4c(Nc4ccc(NC(=O)c5ccc(CN)cc5)cc4)n3)cc2)c1` [Example 87, 4-Aminomethyl-N-{4-[3-bromo-5-(3′-methoxy-biphenyl-4-yl)-pyrazolo[1,5-c]pyrimidin-7-ylamino]-phenyl}-benzamide], the IC50 in test [1] is at most 5 µM.

Usually IC50 stands for the concentration needed to halve the response being measured.
